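Dose response: 5 concentrations. Exposure: 48 h. Format: 96-well plates. Endpoint: linear interpolation; highest concentration if not reached. The concentration for full growth arrest is given as TGI.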
Legend:
Assay in all cases: NCI-60 cell line screen, 48 h
NCI-H23 lung = system: NCI-H23 lung
MDA-MB-231 breast = system: MDA-MB-231 breast
MOLT-4 leukemia = system: MOLT-4 leukemia
HCT-116 colon = system: HCT-116 colon
A549 NSCLC = system: A549 NSCLC
MALME-3M melanoma = system: MALME-3M melanoma
NCI-H522 lung = system: NCI-H522 lung
UACC-257 melanoma = system: UACC-257 melanoma
MDA-MB-435 = system: MDA-MB-435
SF-295 CNS = system: SF-295 CNS
DU-145 prostate = system: DU-145 prostate
HCT-15 colon = system: HCT-15 colon
RXF 393 renal = system: RXF 393 renal
IGROV1 ovarian = system: IGROV1 ovarian
NCI-H226 lung = system: NCI-H226 lung
SF-268 CNS = system: SF-268 CNS
UACC-62 melanoma = system: UACC-62 melanoma
BT-549 breast = system: BT-549 breast
NCI/ADR-RES ovarian = system: NCI/ADR-RES ovarian
SK-MEL-5 melanoma = system: SK-MEL-5 melanoma
786-0 renal = system: 786-0 renal
COLO 205 colon = system: COLO 205 colon
OVCAR-5 ovarian = system: OVCAR-5 ovarian
U251 CNS = system: U251 CNS
HT29 colon = system: HT29 colon
EKVX NSCLC = system: EKVX NSCLC
SF-539 CNS = system: SF-539 CNS
PC-3 prostate = system: PC-3 prostate
UO-31 renal = system: UO-31 renal
SNB-75 CNS = system: SNB-75 CNS
KM12 colon = system: KM12 colon
SN12C renal = system: SN12C renal
ACHN renal = system: ACHN renal
CAKI-1 renal = system: CAKI-1 renal
M14 melanoma = system: M14 melanoma
K-562 leukemia = system: K-562 leukemia
OVCAR-8 ovarian = system: OVCAR-8 ovarian
MDA-N = system: MDA-N
NCI-H460 lung = system: NCI-H460 lung
OVCAR-4 ovarian = system: OVCAR-4 ovarian
SNB-19 CNS = system: SNB-19 CNS
OVCAR-3 ovarian = system: OVCAR-3 ovarian
TK-10 renal = system: TK-10 renal
SK-MEL-2 melanoma = system: SK-MEL-2 melanoma
HOP-62 NSCLC = system: HOP-62 NSCLC
HCC-2998 colon = system: HCC-2998 colon
MCF7 breast = system: MCF7 breast
CCRF-CEM leukemia = system: CCRF-CEM leukemia
SR leukemia = system: SR leukemia
T-47D breast = system: T-47D breast
A498 renal = system: A498 renal
HOP-92 NSCLC = system: HOP-92 NSCLC
HS 578T breast = system: HS 578T breast
HL-60(TB) leukemia = system: HL-60(TB) leukemia
SW-620 colon = system: SW-620 colon
RPMI-8226 leukemia = system: RPMI-8226 leukemia
SK-OV-3 ovarian = system: SK-OV-3 ovarian
SK-MEL-28 melanoma = system: SK-MEL-28 melanoma
LOX IMVI melanoma = system: LOX IMVI melanoma

Measured: TGI

O=[N+]([O-])c1ccc2nc(/C=C(\O)c3ccc(Cl)cc3)c(/C=C(\O)c3ccc(Cl)cc3)nc2c1
60.7 µM: NCI-H522 lung
> 100 µM: NCI-H23 lung | MDA-MB-231 breast | MOLT-4 leukemia | HCT-116 colon | A549 NSCLC | MALME-3M melanoma | UACC-257 melanoma | MDA-MB-435 | SF-295 CNS | DU-145 prostate | HCT-15 colon | RXF 393 renal | IGROV1 ovarian | NCI-H226 lung | SF-268 CNS | UACC-62 melanoma | BT-549 breast | NCI/ADR-RES ovarian | SK-MEL-5 melanoma | 786-0 renal | COLO 205 colon | OVCAR-5 ovarian | U251 CNS | HT29 colon | EKVX NSCLC | SF-539 CNS | PC-3 prostate | UO-31 renal | SNB-75 CNS | KM12 colon | SN12C renal | ACHN renal | CAKI-1 renal | M14 melanoma | K-562 leukemia | OVCAR-8 ovarian | MDA-N | NCI-H460 lung | OVCAR-4 ovarian | SNB-19 CNS | OVCAR-3 ovarian | TK-10 renal | SK-MEL-2 melanoma | HOP-62 NSCLC | HCC-2998 colon | MCF7 breast | CCRF-CEM leukemia | SR leukemia | T-47D breast | A498 renal

NC(=S)NNC(=S)NC(=O)c1ccco1
> 10 µM: NCI-H23 lung | MDA-MB-231 breast | MOLT-4 leukemia | HOP-92 NSCLC | HCT-116 colon | HS 578T breast | A549 NSCLC | MALME-3M melanoma | UACC-257 melanoma | MDA-MB-435 | DU-145 prostate | HCT-15 colon | RXF 393 renal | HL-60(TB) leukemia | IGROV1 ovarian | SW-620 colon | NCI-H226 lung | SF-268 CNS | UACC-62 melanoma | NCI/ADR-RES ovarian | SK-MEL-5 melanoma | 786-0 renal | OVCAR-5 ovarian | U251 CNS | HT29 colon | RPMI-8226 leukemia | EKVX NSCLC | SK-OV-3 ovarian | UO-31 renal | SNB-75 CNS | KM12 colon | SN12C renal | ACHN renal | CAKI-1 renal | M14 melanoma | K-562 leukemia | OVCAR-8 ovarian | MDA-N | NCI-H460 lung | OVCAR-4 ovarian | SNB-19 CNS | OVCAR-3 ovarian | SK-MEL-2 melanoma | HOP-62 NSCLC | HCC-2998 colon | SK-MEL-28 melanoma | CCRF-CEM leukemia | SR leukemia | T-47D breast | LOX IMVI melanoma

— PubChem BioAssay (NCI)
